Here are results for three compounds from patent publication EP0359454B1, “CC-1065 analogs having two CPI subunits” (PHARMACIA & UPJOHN COMPANY, priority 1988, dated 1990).

The subject of one series is L-1210 Leukemia. The series is described as follows: L-1210 leukemia in vivo, IV drug vs IP tumor, dosed on day 1. The note with it: for OD (optimum dose): i.v. dose on day 1. Also noted: species or system Male BDF1 mice. From the text: (§1) Table 3 presents data comparing [S-(R*,R*)]-6,6′-[carbonylbis(imino-1H-indole-5,2-dicarbonyl)]bis[8-chloromethyl)-3,6,7,8-tetrahydro-1-methyl-benzo[1,2-b:4,3-b′]dipyrrol-4-ol (Compound 1) with (7bR)-N-[2-[(4,5,8,8a-tetrahydro-7-methyl-4-oxocyclopropa-[C]pyrrolo[3,2-e]indol-2(1H)0yl)carbonyl]-1H-indol-5-yl]-2-benzofurancarboxamide (U-73,975) in the other murine systems where the compounds have been run jointly.
(§2) The results set forth in Tables 1 and 4 were obtained using standard well known procedures (In Vivo Cancer, Models, NIH Publication No. 84-2635, 1984).
(§3) T/C refers to median life span of treated mice divided by median life span of control mice times 100.

The test system of the next series is L1210 leukemia cells. As to the kind of experiment: In vitro L1210 cell growth inhibition. The format is cell-based, murine. The conditions noted are these: Mus musculus, concentration of drug which inhibits cell growth 50%, read-out: ID50 (the source's name).
Source text: as §1

The subject of another series is L-1210 i.p. The series is described as follows: L-1210 i.p. tumor, i.p. dose on days 1,5,9. Type of series: in vivo, murine. The note with it: for OD (optimum dose): i.p. dose on days 1,5,9; for cures: i.p. dose on days 1,5,9, at optimum dose, survival 30 days = cured.
Source text: as §1, §2, §3

In a further series the test system is L-1210 sc. As to the kind of experiment: L-1210 sc tumor, i.p. dose on day 1. The note with it: for OD (optimum dose) / cures: L-1210 sc; for OD (optimum dose): i.p. dose 1 on day 1; for cures: i.p. dose 1 on day 1, at optimum dose, survival 30 days = cured. The format is in vivo, murine.
Source text: as §1, §2, §3

The next series deals with B-16 i.p. The series is described as follows: B-16 i.p. tumor, i.v. dose on day 1. The format is in vivo, murine. The conditions noted are these: for OD (optimum dose): i.v. dose on day 1; for T/C: i.v. dose on day 1, at optimum dose.
Source text: The compounds of Formula I are particularly useful as antitumor agents. […] These murine test systems are predictive for clinically useful human antitumor agents (see, for examle, A. Geldin et al, European J. Cancer, Vol. 17, pp 129-142, 1981; J.M. Vendetti, Cancer Treatment Reports, Vol. 67, pp. 767-772, 1983; and J.M. Vendetti et al, Advances in Pharmacology and Chemotherapy, Vol. 20, pp. 1-20, 1984), and, therefore, the compounds of the subject invention (Formula I) will be useful in the control and treatment of susceptible neoplastic (cancer) diseases, including susceptible leukemics, in humans when given, for example, intravenously in doses of 0.001 µg/kg to about 10 mg/kg of body weight per day, the exact dose depending on the age, weight, and condition of the patient, and on the frequency of administration.
as §1, §3

The next series deals with Lewis Lung i.v. As to the kind of experiment: Lewis Lung i.v. tumor, i.v. dose on days 1,5,9. The note with it: for OD (optimum dose): i.v. dose on days 1,5,9; for T/C: i.v. dose on days 1,5,9, at optimum dose. Type of series: in vivo, murine.
Source text: as §1, §3

Series [1] is described as follows: Delayed death in animals without tumor. Type of series: in vivo, murine. The conditions noted are these: NO TUMOR.
Source text: as §1

The conditions of series [2]: in vitro and in vivo, depending upon the particular test system; cited from earlier work.

Converted amounts (≈) assume the structure as drawn.

`Cc1c[nH]c2c(O)cc3c(c12)[C@H](CCl)CN3C(=O)c1cc2cc(NC(=O)Nc3ccc4[nH]c(C(=O)N5C[C@@H](CCl)c6c5cc(O)c5[nH]cc(C)c65)cc4c3)ccc2[nH]1` [Compound 1, [S-(R*,R*)]-6,6′-[carbonylbis(imino-1H-indole-5,2-dicarbonyl)]bis[8-chloromethyl)-3,6,7,8-tetrahydro-1-methylbenzo[1,2-b:4,3-b′]dipyrrol-4-ol]: the cures was 4/6 cures in the series on L-1210 Leukemia (IV drug vs IP tumor, dosed on day 1, animals surviving 30 days are considered cured, at the dose (µg/kg)); “(4/6)” in the series on L-1210 Leukemia (L-1210 i.p., i.v. dose on day 1, at optimum dose, animals which survive 30 days are considered cured); “(3/6)” in the series on L-1210 i.p.; “(6/6)” in the series on L-1210 sc. In addition, the “OD (optimum dose)” value in the series on L-1210 Leukemia (L-1210 i.p.) is 0.01 to 0.015 mg/kg; in the series with L-1210 i.p., 0.004 mg/kg; in the series with L-1210 sc, 0.01 to 0.025 mg/kg; in the series on B-16 i.p., 0.015 mg/kg; in the series with Lewis Lung i.v., 0.004 mg/kg. Further, the “In vivo L1210 activity (in words)” value in the series with L-1210 Leukemia (at 15 µg/kg) is “highly curative”. For the same compound, the IC50 in the series on L1210 leukemia cells was 0.001 ng/mL (≈ 0.00123 nM). The “Activity compared with U-73,975 (in words)” value in the series on L-1210 sc (subcutaneous L1210 assay, over several dose ranges) was “superior activity”. Also, the T/C worked out at 167 in the series on B-16 i.p. and 168 with Lewis Lung i.v.. The Delayed death result in series [1] was “not to cause delayed death”; in series [1] (listed as Cpd 1), “No Delayed Death”.

Consider `COc1c(O)c2c(c3cc(C(=O)N4CCc5c4c(O)c(OC)c4[nH]c(C(=O)N6CC(COC(C)=O)c7c6cc(O)c6[nH]cc(C)c76)cc54)[nH]c13)CCN2C(N)=O` (stereo not drawn) [AAP, 7-[[7-[[1-[(acetyloxy)methyl]-1,6-dihydro-5-hydroxy-8-methylbenzo[1,2-b:4,3-b′]dipyrrol-3(2H)-yl]carbonyl]-1,6-dihydro-4-hydroxy-5-methoxybenzo[1,2:4,3-b′]-dipyrrol-3(2H)-yl]carbonyl]-1,6-dihydro-4-hydroxy-5-methoxy-benzo[1,2-b:4,3-b′]dipyrrole-3(2H)-carboxamide], for which the “factor by which less potent than CC-1065” value in series [2] is on record as 10^3 to 10^4.

In the case of `Cc1c[nH]c2c1[C@@]13C[C@@H]1CN(C(=O)c1cc4cc(NC(=O)c5cc6ccccc6o5)ccc4[nH]1)C3=CC2=O` [U-73,975, (7bR)-N-[2-[(4,5,8,8a-tetrahydro-7-methyl-4-oxocyclopropa-[C]pyrrolo[3,2-e]indol-2(1H)0yl)carbonyl]-1H-indol-5-yl]-2-benzofurancarboxamide, reference compound], the “Best T/C” value with L-1210 Leukemia (IV drug vs IP tumor, dosed on day 1, T/C = median survival treated/control x 100, each value at the dose (1-600 µg/kg)) stood at 213; in the series with L-1210 Leukemia (L-1210 i.p., i.v. dose on day 1, at optimum dose), 213. Moreover, the “OD (optimum dose)” value in the series on L-1210 Leukemia (L-1210 i.p.) was found to be 0.1 mg/kg; in the series with L-1210 i.p., 0.02 mg/kg; in the series with L-1210 sc it was 0.1 mg/kg; in the series with B-16 i.p., 0.1 mg/kg; in the series on Lewis Lung i.v., 0.025 mg/kg. In addition, the cures entry with L-1210 i.p. and in the series with L-1210 sc was “(4/6)” throughout. The T/C with B-16 i.p. worked out at 160; with Lewis Lung i.v. it was 147. Further, the Delayed death entry is recorded as “not to cause delayed death” in series [1] and “No Delayed Death” in series [1] (listed as U-73-975).
